Data from BindingDB's records for patent US10227350 (Gilead Sciences, 2019).

Molecular target: Phosphatidylinositol 4,5-bisphosphate 3-kinase catalytic subunit beta isoform (Homo sapiens, UniProt P42338)
Assay: TR-FRET Assay
Description: Class I PI3K isoforms were expressed and purified as heterodimeric recombinant proteins. All assay reagents and buffers for the TR-FRET assay were purchased from Millipore. […] The compounds were added to the assay solution and incubated for 30 minutes at 25° C.

Chain of Phosphatidylinositol 4,5-bisphosphate 3-kinase catalytic subunit beta isoform (P42338 whole entry, canonical isoform): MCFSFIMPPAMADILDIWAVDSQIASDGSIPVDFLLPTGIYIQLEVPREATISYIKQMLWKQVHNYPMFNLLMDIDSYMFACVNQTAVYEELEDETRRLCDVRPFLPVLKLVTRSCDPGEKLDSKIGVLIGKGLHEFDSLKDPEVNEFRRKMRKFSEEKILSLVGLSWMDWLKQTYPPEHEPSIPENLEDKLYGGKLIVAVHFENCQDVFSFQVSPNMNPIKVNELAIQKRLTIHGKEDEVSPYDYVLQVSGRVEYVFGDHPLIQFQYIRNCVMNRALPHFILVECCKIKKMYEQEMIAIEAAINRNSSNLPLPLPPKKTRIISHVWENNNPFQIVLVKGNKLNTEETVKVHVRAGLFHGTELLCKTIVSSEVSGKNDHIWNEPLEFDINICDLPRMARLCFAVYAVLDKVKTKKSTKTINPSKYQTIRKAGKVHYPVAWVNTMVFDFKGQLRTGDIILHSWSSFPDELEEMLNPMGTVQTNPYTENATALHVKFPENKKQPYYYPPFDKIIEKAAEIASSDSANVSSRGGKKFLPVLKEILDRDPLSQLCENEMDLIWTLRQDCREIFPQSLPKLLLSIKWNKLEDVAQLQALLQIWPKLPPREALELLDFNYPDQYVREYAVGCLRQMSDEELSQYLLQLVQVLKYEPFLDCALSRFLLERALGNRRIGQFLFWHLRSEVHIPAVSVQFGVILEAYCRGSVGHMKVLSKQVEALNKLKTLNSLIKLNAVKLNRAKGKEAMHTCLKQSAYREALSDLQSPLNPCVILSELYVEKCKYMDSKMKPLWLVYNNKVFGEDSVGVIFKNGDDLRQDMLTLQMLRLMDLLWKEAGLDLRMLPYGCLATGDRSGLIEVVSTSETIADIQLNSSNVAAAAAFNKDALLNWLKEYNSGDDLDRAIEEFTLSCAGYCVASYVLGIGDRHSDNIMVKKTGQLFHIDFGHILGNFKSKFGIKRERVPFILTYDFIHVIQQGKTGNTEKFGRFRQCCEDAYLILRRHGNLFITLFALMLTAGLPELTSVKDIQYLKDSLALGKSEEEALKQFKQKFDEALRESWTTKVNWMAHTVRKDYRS

IC50 [nM] | SMILES
4 | CCCc1nc2c(-c3nnc[nH]3)cc(-c3ccnc(N)c3F)cc2n1-c1ccnc2c(Cl)ccc(F)c12 [US10227350, Compound 84]
5 | Cc1cc(-c2cc(-c3nnc[nH]3)c3nc(C)n(-c4ccnc5c(Cl)cccc45)c3c2)ccn1 [US10227350, Compound 40]
